Results reported in US9624210B2, “Amino-pyrimidine-containing spleen tyrosine kinase (Syk) inhibitors” (Merck Sharp & Dohme Corp., priority 2012, dated 2017).

Columns and labels:
[1] = target: recombinant human GST-Syk (Homo sapiens (Human), UniProt P43405); assay: Homogeneous Time-Resolved Fluorescence (HTRF) assay for the recombinant human Syk enzyme; type: biochemical; conditions: 10-dose titration 10 μM to 0.508 nM; 25 μM ATP; values below lowest test concentration given as <0.508
Procedure: Assay 1: Homogeneous Time-Resolved Fluorescence (HTRF) Assay for the Recombinant Human Syk Enzyme A recombinant GST-hSyk fusion protein was used to measure potency of compounds to inhibit human Syk activity. The recombinant human GST-Syk (Carna Biosciences #08-176) (5 pM final concentration total protein) was incubated with various concentrations of the inhibitor diluted in DMSO (0.1% final concentration) for 10 minutes at room temperature in 15 mM Tris-HCl (pH 7.5), 0.01% Tween 20, 2 mM DTT in 384 well plate format. To initiate the reaction the biotinylated substrate peptide (250 nM final concentration) that contains the phosphorylation site for Syk was added with magnesium (5 mM final concentration) and ATP (25 μM final concentration). The final volume of the reaction was 10 μL. Phosphorylation of the peptide was allowed to proceed for 45′ at room temperature. To quench the reaction and detect the phosphorylated product, 2 nM of a Europium-anti-phosphotyrosine antibody (Perkin Elmer #AD0161) and 70 nM SA-APC (Perkin-Elmer #CR130-100) were added together in 15 mM Tris pH 7.5, 40 mM EDTA, 0.01% Tween 20. The final volume of the quenching solution was 10 μL. The resulting HTRF signal was measured after 30 minutes on a EnVision (Perkin-Elmer) reader using a time-resolved fluorescence protocol. […] Table A provides the IC50 values for representative compounds of the invention.

[2] = target: phosphorylated Syk enzyme (Homo sapiens (Human), UniProt P43405); assay: Dissociation rate: enzyme-inhibitor dilution and activity recovery assay (TR-FRET); type: biochemical; conditions: for recovery of Syk enzyme activity following dilution of the inhibitor:Syk complex (relative to the DMSO control): 100-fold dilution after 2 hours preincubation, FIG. 1 and FIG. 2
Procedure: Assay 2: Determination of the Dissociation Rate for Compound 1B
The dissociation rate (koff) of inhibitor:phosphorylated Syk complexes was examined using an enzyme-inhibitor dilution and activity recovery assay (R. A. Copeland, Enzymes: A practical introduction to structure, Mechanism, and Data Analysis Wiley-VCH 2000 and R. A. Copeland, Evaluation of Enzyme Inhibitors in Drug Discovery John Wiley & Sons, 2005). In this assay the recovery of kinase activity following dilution is measured using a time resolved fluorescence resonance energy transfer (TR-FRET) assay. The enzyme (at 100× the usual assay concentration) and inhibitor (at 20× the usual assay concentration) are preincubated for 2 hours to ensure equilibrium is reached. The samples are then diluted 100-fold into assay buffer (1× Kinase buffer [Invitrogen, Inc], 2 mM DTT, 0.05% BSA) containing a saturating amount of competitive substrate (1 mM ATP, to minimize rebinding of inhibitor) and peptide substrate (1 μM). The final nominal enzyme concentration following dilution is 4 pM. Samples (1 μL) are periodically withdrawn from the assay plate and transferred into 50 uL of detection/quench buffer (10 nM streptavidin labeled Dylite (Perkin Elmer) and 3 nM Eu-labeled antiphosphotyrosine antibody (pY20, Perkin Elmer). After 30 minutes incubation, the assay plate was read on the Envision reader (Perkin Elmer) using the following parameters: excitation wavelength of 320 nm, and dual emission monitoring at 616 and 665 nm. The delay time was 20 μs with a 200 μs window time. The time between flashes was 16600 μs and 20 flashes were used per well.
The recovery of enzyme activity is fit to the following equation (Morrison, J. F., and Walsh, C. T., (1988) Advances in Enzymology and Related Areas of Molecular Biology, 61 201-301): P=vst+[(vi−vs)/kobs][1−exp(−kobst)]+P0 where P is the quantity of phosphorylated peptide product produced, P0 is the concentration of phosphopeptide product present at time=0 (immediately following dilution), vs is the steady-state velocity, vi is the rate at time=0, and kobs is the rate constant describing activity recovery.

[3] = system: allergic rhinitis; conditions: dosed intranasally, phase I/II study; cited from earlier work
[4] = system: allergic rhinitis; conditions: phase II clinical trial; cited from earlier work

Row | IC50 [1] | SMILES | recovery of Syk enzyme activity following dilution of the inhibitor:Syk complex (relative to the DMSO control) [2] | also measured
1 | < 0.508 nM | Cc1cc(Nc2nccc(C(F)(F)F)n2)cc(-c2cnc(C3(O)CCCc4cc(C(=O)O)ccc43)s2)c1 (racemic) [Compound 1, 5-hydroxy-5-(5-(3-methyl-5-((4-(trifluoromethyl)pyrimidin-2-yl)amino)phenyl)thiazol-2-yl)-5,6,7,8-tetrahydronaphthalene-2-carboxylic acid] | – | –
2 | 1.6 nM | Cc1cc(Nc2nccc(C(F)(F)F)n2)cc(-c2cnc([C@]3(O)CCCc4cc(C(=O)O)ccc43)s2)c1 [Compound 1A, (S)-5-hydroxy-5-(5-(3-methyl-5-((4-(trifluoromethyl)pyrimidin-2-yl)amino)phenyl)thiazol-2-yl)-5,6,7,8-tetrahydronaphthalene-2-carboxylic acid] | – | –
3 | < 0.508 nM | Cc1cc(Nc2nccc(C(F)(F)F)n2)cc(-c2cnc([C@@]3(O)CCCc4cc(C(=O)O)ccc43)s2)c1 [Compound 1B, (R)-5-hydroxy-5-(5-(3-methyl-5-((4-(trifluoromethyl)pyrimidin-2-yl)amino)phenyl)thiazol-2-yl)-5,6,7,8-tetrahydronaphthalene-2-carboxylic acid] | only a fraction of the activity returned (relative to the DMSO control) after two hours | dissociation rate of the inhibitor:phosphorylated Syk complex [2]: slow dissociation rate; half-life of the inhibitor:Syk complex ([2]; after 100-fold dilution into 1 mM ATP, FIG. 2): > 2 h
4 | < 0.508 nM | Cc1cc(Nc2nccc(C(C)C)n2)cc(-c2cnc([C@]3(O)CC[C@@H](C(=O)O)CC3)s2)c1 [Compound A, reference compound] | fully recovered (relative to the DMSO control) within the first five minutes after dilution | –
5 | – | Oc1cccc(Nc2ncc(F)c(Nc3cccc(O)c3)n2)c1 [Compound R112] | – | PGD2 [3]: statistically significant decrease; clinical safety [3]: safe across a range of indicators; efficacy versus placebo [4]: lack of efficacy
